From patent publication US20030104507A1, “Method for detection of ATP” (priority 2001, published 2003)

System: Jurkat cells
Assay: Effect of NaF on Jurkat cell luminescence
Type: cell-based
Source text: In some cells, such as lymphoid cells (e.g., Jurkat), an increase in luminescence over time in the presence of the reagent composition solution is observed. While the underlying mechanism of this increase in luminescence is not known, it is postulated that it results from the functioning of ATP-generating enzymes in this cell. The activity of such enzymes, if left unchecked, will result in an over-estimation of ATP in a sample at the time of the assay. This experiment was designed to test the effects of sodium fluoride on luminescence when using lymphoid cells.
Jurkat cells (ATCC, CRL-1990) were grown in 5% CO2/95% air, 100% humidity at 37° C. and maintained in RPMI media (Sigma, R-8005) containing 10% FBS (Hyclone #SH30070), 1X non-essential amino acids (Hyclone SH30238) and 1 mM sodium pyruvate (Hyclone #SH30239). Cells were plated at 0, 12500, 25000, and 50000 cells/well in 100 μl of media in a 96-well microtiter luminometer plate. Quadruplicate replicates were prepared. To each of these wells was added reagent composition (reagent composition=40 mM Citrate buffer (pH 6.0), 110 mM MES buffer (pH 6.0), 0.2 mM EDTA, 0.2% Gelatin, 100 μg/ml Luciferase (LucPpe2m146, diluted from 37.8 mg/ml stock solution), 100 μM luciferin, 300 mM NaCl, 20 mM MgSO4, 0.05% Mazu DF-204, 0.6% DTAB). In addition, all but the “no KPO4” control sample contained 60 mM KPO4 buffer (pH 6.0). Various concentrations of NaF were then added to the above solution to final concentrations of 0, 1.0, 2.0, 4.0, 10.0 mM; one condition had 10.0 mM NaF but without KPO4.
Total reaction volume per well was 200 μl, consisting of 100 μl cells plus media and 100 μl reagent composition containing KPO4 and/or NaF. The light output was taken at various times on a Dynex microtiter plate luminometer at a 0.5 second read time. The resulting average rlus from quadruplicate wells and calculated signal stabilities as measured by their half-life values are reported in Table S.

`[F-].[Na+]` [NaF, sodium fluoride] gave an Average rlu (1.0 mM NaF, 12500 cells/well, 0 min) of 358.61 rlu, an Average rlu (1.0 mM NaF, 12500 cells/well, 30 min) of 341.31 rlu and an Average rlu (1.0 mM NaF, 12500 cells/well, 85 min) of 331.08 rlu. The Average rlu (1.0 mM NaF, 12500 cells/well, 130 min) was 323.54 rlu, the Average rlu (1.0 mM NaF, 12500 cells/well, 220 min) was 271.89 rlu and the Average rlu (1.0 mM NaF, 12500 cells/well, 255 min) was 257.06 rlu. For the same compound, the Average rlu (1.0 mM NaF, 12500 cells/well, 285 min) was 247.61 rlu, the Average rlu (1.0 mM NaF, 25000 cells/well, 0 min) was 691.68 rlu and the Average rlu (1.0 mM NaF, 25000 cells/well, 30 min) was 640.53 rlu. It also gave an Average rlu (1.0 mM NaF, 25000 cells/well, 85 min) of 611.45 rlu, an Average rlu (1.0 mM NaF, 25000 cells/well, 130 min) of 596.87 rlu and an Average rlu (1.0 mM NaF, 25000 cells/well, 220 min) of 495.89 rlu. For the same compound, the Average rlu (1.0 mM NaF, 25000 cells/well, 255 min) was 463.32 rlu, the Average rlu (1.0 mM NaF, 25000 cells/well, 285 min) was 446.32 rlu and the Average rlu (1.0 mM NaF, 50000 cells/well, 0 min) was 1380.16 rlu. The Average rlu (1.0 mM NaF, 50000 cells/well, 30 min) was 1268.49 rlu, the Average rlu (1.0 mM NaF, 50000 cells/well, 85 min) was 1185.73 rlu and the Average rlu (1.0 mM NaF, 50000 cells/well, 130 min) was 1147.33 rlu. For the same compound, the Average rlu (1.0 mM NaF, 50000 cells/well, 220 min) was 936.82 rlu, the Average rlu (1.0 mM NaF, 50000 cells/well, 255 min) was 862.31 rlu and the Average rlu (1.0 mM NaF, 50000 cells/well, 285 min) was 832.15 rlu. It also gave an Average rlu (2.0 mM NaF, 12500 cells/well, 0 min) of 348.16 rlu, an Average rlu (2.0 mM NaF, 12500 cells/well, 30 min) of 333.48 rlu and an Average rlu (2.0 mM NaF, 12500 cells/well, 85 min) of 323.75 rlu. The Average rlu (2.0 mM NaF, 12500 cells/well, 130 min) was 317.48 rlu, the Average rlu (2.0 mM NaF, 12500 cells/well, 220 min) was 258.43 rlu and the Average rlu (2.0 mM NaF, 12500 cells/well, 255 min) was 251.90 rlu. The Average rlu (2.0 mM NaF, 12500 cells/well, 285 min) was 239.40 rlu, the Average rlu (2.0 mM NaF, 25000 cells/well, 0 min) was 679.02 rlu and the Average rlu (2.0 mM NaF, 25000 cells/well, 30 min) was 631.69 rlu. For the same compound, the Average rlu (2.0 mM NaF, 25000 cells/well, 85 min) was 603.07 rlu, the Average rlu (2.0 mM NaF, 25000 cells/well, 130 min) was 589.08 rlu and the Average rlu (2.0 mM NaF, 25000 cells/well, 220 min) was 472.37 rlu. The Average rlu (2.0 mM NaF, 25000 cells/well, 255 min) was 455.25 rlu, the Average rlu (2.0 mM NaF, 25000 cells/well, 285 min) was 433.54 rlu and the Average rlu (2.0 mM NaF, 50000 cells/well, 0 min) was 1340.22 rlu. For the same compound, the Average rlu (2.0 mM NaF, 50000 cells/well, 30 min) was 1239.83 rlu, the Average rlu (2.0 mM NaF, 50000 cells/well, 85 min) was 1156.03 rlu and the Average rlu (2.0 mM NaF, 50000 cells/well, 130 min) was 1111.04 rlu. The Average rlu (2.0 mM NaF, 50000 cells/well, 220 min) was 873.26 rlu, the Average rlu (2.0 mM NaF, 50000 cells/well, 255 min) was 829.87 rlu and the Average rlu (2.0 mM NaF, 50000 cells/well, 285 min) was 781.80 rlu. For the same compound, the Average rlu (4.0 mM NaF, 12500 cells/well, 0 min) was 367.69 rlu, the Average rlu (4.0 mM NaF, 12500 cells/well, 30 min) was 346.05 rlu and the Average rlu (4.0 mM NaF, 12500 cells/well, 85 min) was 335.27 rlu. It also gave an Average rlu (4.0 mM NaF, 12500 cells/well, 130 min) of 331.07 rlu, an Average rlu (4.0 mM NaF, 12500 cells/well, 220 min) of 275.13 rlu and an Average rlu (4.0 mM NaF, 12500 cells/well, 255 min) of 259.58 rlu. For the same compound, the Average rlu (4.0 mM NaF, 12500 cells/well, 285 min) was 251.79 rlu, the Average rlu (4.0 mM NaF, 25000 cells/well, 0 min) was 691.41 rlu and the Average rlu (4.0 mM NaF, 25000 cells/well, 30 min) was 634.08 rlu. For the same compound, the Average rlu (4.0 mM NaF, 25000 cells/well, 85 min) was 604.37 rlu, the Average rlu (4.0 mM NaF, 25000 cells/well, 130 min) was 587.41 rlu and the Average rlu (4.0 mM NaF, 25000 cells/well, 220 min) was 476.36 rlu. The Average rlu (4.0 mM NaF, 25000 cells/well, 255 min) was 453.66 rlu, the Average rlu (4.0 mM NaF, 25000 cells/well, 285 min) was 436.38 rlu and the Average rlu (4.0 mM NaF, 50000 cells/well, 0 min) was 1378.13 rlu. For the same compound, the Average rlu (4.0 mM NaF, 50000 cells/well, 30 min) was 1277.41 rlu, the Average rlu (4.0 mM NaF, 50000 cells/well, 85 min) was 1195.56 rlu and the Average rlu (4.0 mM NaF, 50000 cells/well, 130 min) was 1139.99 rlu. It also gave an Average rlu (4.0 mM NaF, 50000 cells/well, 220 min) of 883.49 rlu, an Average rlu (4.0 mM NaF, 50000 cells/well, 255 min) of 853.43 rlu and an Average rlu (4.0 mM NaF, 50000 cells/well, 285 min) of 813.31 rlu. For the same compound, the Average rlu (10.0 mM NaF, 12500 cells/well, 0 min) was 364.79 rlu, the Average rlu (10.0 mM NaF, 12500 cells/well, 30 min) was 343.44 rlu and the Average rlu (10.0 mM NaF, 12500 cells/well, 85 min) was 331.48 rlu. For the same compound, the Average rlu (10.0 mM NaF, 12500 cells/well, 130 min) was 326.32 rlu, the Average rlu (10.0 mM NaF, 12500 cells/well, 220 min) was 271.64 rlu and the Average rlu (10.0 mM NaF, 12500 cells/well, 255 min) was 256.88 rlu. It also gave an Average rlu (10.0 mM NaF, 12500 cells/well, 285 min) of 248.30 rlu, an Average rlu (10.0 mM NaF, 25000 cells/well, 0 min) of 753.29 rlu and an Average rlu (10.0 mM NaF, 25000 cells/well, 30 min) of 677.94 rlu. The Average rlu (10.0 mM NaF, 25000 cells/well, 85 min) was 635.67 rlu, the Average rlu (10.0 mM NaF, 25000 cells/well, 130 min) was 617.77 rlu and the Average rlu (10.0 mM NaF, 25000 cells/well, 220 min) was 496.08 rlu. The Average rlu (10.0 mM NaF, 25000 cells/well, 255 min) was 471.66 rlu, the Average rlu (10.0 mM NaF, 25000 cells/well, 285 min) was 450.76 rlu and the Average rlu (10.0 mM NaF, 50000 cells/well, 0 min) was 1442.08 rlu. For the same compound, the Average rlu (10.0 mM NaF, 50000 cells/well, 30 min) was 1324.67 rlu, the Average rlu (10.0 mM NaF, 50000 cells/well, 85 min) was 1235.80 rlu and the Average rlu (10.0 mM NaF, 50000 cells/well, 130 min) was 1181.84 rlu. It also gave an Average rlu (10.0 mM NaF, 50000 cells/well, 220 min) of 903.44 rlu, an Average rlu (10.0 mM NaF, 50000 cells/well, 255 min) of 870.95 rlu and an Average rlu (10.0 mM NaF, 50000 cells/well, 285 min) of 826.48 rlu. The Average rlu (10.0 mM NaF, without KPO4, 12500 cells/well, 0 min) was 409.57 rlu, the Average rlu (10.0 mM NaF, without KPO4, 12500 cells/well, 30 min) was 400.10 rlu and the Average rlu (10.0 mM NaF, without KPO4, 12500 cells/well, 85 min) was 384.84 rlu. The Average rlu (10.0 mM NaF, without KPO4, 12500 cells/well, 130 min) was 371.42 rlu, the Average rlu (10.0 mM NaF, without KPO4, 12500 cells/well, 220 min) was 294.12 rlu and the Average rlu (10.0 mM NaF, without KPO4, 12500 cells/well, 255 min) was 283.01 rlu. For the same compound, the Average rlu (10.0 mM NaF, without KPO4, 12500 cells/well, 285 min) was 267.78 rlu, the Average rlu (10.0 mM NaF, without KPO4, 25000 cells/well, 0 min) was 806.87 rlu and the Average rlu (10.0 mM NaF, without KPO4, 25000 cells/well, 30 min) was 785.16 rlu. The Average rlu (10.0 mM NaF, without KPO4, 25000 cells/well, 85 min) was 734.44 rlu, the Average rlu (10.0 mM NaF, without KPO4, 25000 cells/well, 130 min) was 692.57 rlu and the Average rlu (10.0 mM NaF, without KPO4, 25000 cells/well, 220 min) was 516.69 rlu. For the same compound, the Average rlu (10.0 mM NaF, without KPO4, 25000 cells/well, 255 min) was 498.99 rlu, the Average rlu (10.0 mM NaF, without KPO4, 25000 cells/well, 285 min) was 468.90 rlu and the Average rlu (10.0 mM NaF, without KPO4, 50000 cells/well, 0 min) was 1514.80 rlu. The Average rlu (10.0 mM NaF, without KPO4, 50000 cells/well, 30 min) was 1449.30 rlu and the “effect on the luminescence increase seen with Jurkat cells” value (NaF added to reagent composition) was “can inhibit the luminescence increase”.
